# Measurements: ChEMBL document CHEMBL1201862, “PubChem BioAssay data set” (2004)
#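 In this assay, cells in 96-well plates receive the compound at five concentrations for 48 hours. Endpoints are linearly interpolated between the surrounding concentrations. GI50 is the concentration that inhibits growth by half.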 Activity calls are given as the source filed them. Cut-off read from the data, not from the text of the source: active = GI50 up to about 1.1 µM and inactive = higher.
# Assays:
# Test in all cases: NCI anticancer screen, dose series, 48 h
# HCT-15 = system: HCT-15
# MCF7 = system: MCF7
# UO-31 = system: UO-31
# OVCAR-8 = system: OVCAR-8
# EKVX = system: EKVX
# A498 = system: A498
# SNB-19 = system: SNB-19
# NCI-H522 = system: NCI-H522
# K562 = system: K562
# KM12 = system: KM12
# SK-OV-3 = system: SK-OV-3
# 786-0 = system: 786-0
# HOP-92 = system: HOP-92
# NCI-H226 = system: NCI-H226
# HT-29 = system: HT-29
# U-251 = system: U-251
# Hs-578T = system: Hs-578T
# MOLT-4 = system: MOLT-4
# NCI-H23 = system: NCI-H23
# MDA-MB-231 = system: MDA-MB-231
structure (smiles),measurement,setting,value
O=C1c2ccccc2S(=O)(=O)c2cc(-c3nn[nH]n3)ccc21 [DOXANTRAZOLE],GI50,HCT-15,> 100 µM
same,GI50,MCF7,> 100 µM (inactive)
same,GI50,UO-31,> 100 µM (inactive)
same,GI50,OVCAR-8,> 100 µM (inactive)
same,GI50,EKVX,> 100 µM (inactive)
same,GI50,A498,> 100 µM (inactive)
same,GI50,SNB-19,> 100 µM (inactive)
same,GI50,NCI-H522,> 100 µM (inactive)
same,GI50,K562,> 100 µM (inactive)
same,GI50,KM12,> 100 µM (inactive)
same,GI50,SK-OV-3,> 100 µM (inactive)
same,GI50,786-0,> 100 µM (inactive)
same,GI50,HOP-92,> 100 µM (inactive)
same,GI50,NCI-H226,> 100 µM (inactive)
same,GI50,HT-29,> 100 µM (inactive)
same,GI50,U-251,> 100 µM (inactive)
same,GI50,Hs-578T,> 100 µM (inactive)
same,GI50,MOLT-4,> 100 µM (inactive)
same,GI50,NCI-H23,> 100 µM (inactive)
same,GI50,MDA-MB-231,> 100 µM (inactive)
